According to PMC5585294, “A potent series targeting the malarial cGMP-dependent protein kinase clears infection and blocks transmission” (Nature Communications, 2017):

Legend:
[1] = tested on: panel of 80 human protein kinases; test: Human kinase panel single point screen; type: biochemical; conditions: tested at 100 nM
Excerpt: (§1) The results are expressed as % inhibition of kinase activity.
(§2) (1 picture or pasted object on this page, not shown here)

[2] = tested on: P. falciparum strain 3D7A; test: In vitro parasite reduction rate (PRR) assay; conditions: 10× EC50
Protocol: The assay used the limiting dilution technique to quantify the number of parasites that remained viable after drug treatment. […] To quantify the number of viable parasites after treatment, threefold serial dilutions were used with the above-mentioned samples after removing the drug. Four independent serial dilutions were performed with each sample to correct experimental variations. The number of viable parasites was determined after 21 and 28 days by counting the number of wells with growth using [^3H]-hypoxanthine incorporation. The number of viable parasites was back-calculated by using the formula X ^n-1 where n is the number of wells able to render growth and X the dilution factor (when n = 0, number of viable parasites is estimated as zero).

physchem = conditions: pH 7.4
Protocol: (§3) Compound mlm hlm mLogD PAMPA HepG2 name (%rem) (%rem) (nm/s) (IC50 µM)
(§4) Supplementary Table 2. Compound Properties. MLM, HLM, mLogD and PAMPA . mlm (%rem): % of compound remaining after 30 minutes’ incubation with mouse liver microsomes; hlm (%rem): % of compound remaining after 40 minutes’ incubation with human liver microsomes; mLogD: measured LogD at pH 7.4; PAMPA: parallel artificial membrane permeability assay; HepG2: Cytotoxicity assay using HepG2 cells; n.t.: not tested.

[3] = Cytotoxicity assay (ATP depletion), HT-29; type: cell-based; conditions: human, HT-29 colorectal adenocarcinoma cells, 0.001–10 µM, n = 6
Protocol: A549 (lung carcinoma; ATCC, Ref. ATCC® CCL-185™), plated at 7.5×10^3 cells/well; HT-29 (colorectal adenocarcinoma; ATCC, Ref. ATCC® HTB-38™), plated at 7.5×10^3 cells/well; and MCF7 (breast adenocarcinoma; ATCC, Ref. ATCC® HTB-22™), plated at 9× 10^3 cells/well, were placed into clear bottom, opaque 96 well plates in cell line-specific medium and allowed to attach overnight. […] FCS, 1× GlutaMAX™ Supplement (Life Technologies, 35050061) and 50 units/ml penicillin and 50 µg/ml streptomycin for 48 h. Six independent assays were performed for each line and were carried out by CXR Biosciences Ltd. End point for cytotoxicity assessment was carried out using an ATP depletion kit (CellTiter-Glo Luminescent Cell Viability Assay for ATP quantitation (Promega, Cat # G7572)). Results expressed relative to the 0.1% DMSO control. Unpaired Student’s t-tests were performed using GraphPad Prism software (7.0).

[4] = Cytotoxicity assay using HepG2 cells; conditions: human
Protocol: as §3, §4

human MLK3 = target: T1, human MLK3 (Homo sapiens, UniProt Q16584); test: Human kinase panel single point screen, MLK3; type: biochemical; conditions: at 100 nM; highest level of inhibition in the panel
T1 construct: Protein Phosphorylation Unit, Dundee (screening site)
T1 sequence (Q16584 whole entry): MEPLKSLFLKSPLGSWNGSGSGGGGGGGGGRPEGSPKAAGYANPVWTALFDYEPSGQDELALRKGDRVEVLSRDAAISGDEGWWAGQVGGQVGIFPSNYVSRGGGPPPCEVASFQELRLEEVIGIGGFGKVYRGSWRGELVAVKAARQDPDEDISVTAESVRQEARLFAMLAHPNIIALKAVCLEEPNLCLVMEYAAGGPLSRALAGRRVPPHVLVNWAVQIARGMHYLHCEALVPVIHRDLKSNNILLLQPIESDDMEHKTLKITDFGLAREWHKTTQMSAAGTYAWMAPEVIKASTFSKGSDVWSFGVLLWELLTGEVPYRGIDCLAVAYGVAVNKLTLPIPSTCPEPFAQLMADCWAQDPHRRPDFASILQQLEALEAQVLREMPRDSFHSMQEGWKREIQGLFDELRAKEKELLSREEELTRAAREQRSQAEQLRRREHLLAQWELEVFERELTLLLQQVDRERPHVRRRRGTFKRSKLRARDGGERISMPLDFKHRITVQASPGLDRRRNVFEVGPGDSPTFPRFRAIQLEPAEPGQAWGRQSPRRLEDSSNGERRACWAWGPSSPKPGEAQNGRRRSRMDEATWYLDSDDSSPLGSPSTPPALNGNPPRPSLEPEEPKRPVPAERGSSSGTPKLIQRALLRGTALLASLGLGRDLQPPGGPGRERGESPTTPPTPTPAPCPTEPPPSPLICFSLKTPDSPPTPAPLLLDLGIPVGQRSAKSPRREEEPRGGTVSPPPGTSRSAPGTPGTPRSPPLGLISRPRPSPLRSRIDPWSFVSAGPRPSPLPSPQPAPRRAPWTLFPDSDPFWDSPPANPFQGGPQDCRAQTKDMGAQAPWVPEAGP
Excerpt: as §1, §2

[5] = tested on: P. falciparum Pf3D7 0087/N9; test: GSK P. falciparum humanized mouse model (GSKPfalcHuMouse) efficacy; conditions: 4 days
Excerpt: The mice were infected with 2 × 10^7 P. falciparum Pf3D7^0087/N9-infected erythrocytes (Day 0) at ~ 40% chimerism in peripheral blood. […] AUCED90 is the average daily exposure of the compound in whole blood that reduces parasitemia at day 7 of the in vivo assay by 90% with respect to parasitemia in vehicle-treated mice.

[6] = tested on: P. falciparum wild-type (3D7) stage V gametocytes; test: Gametogenesis (rounding up) assay, wild-type 3D7 stage V gametocytes; type: cell-based, Plasmodium falciparum; conditions: 30 µM xanthurenic acid; 2 µM ML1, 1 µM ML10
Protocol: Plasmodium falciparum clone 3D7A (obtained from Dr Lisa Ranford-Cartwright, University of Edinburgh) gametocytes were initiated and cultured using an adapted version of the traditional Trager and Jenson method modified by Fivelman and colleagues. Stage V gametocytes were purified on a 60% Percoll gradient. Purified parasite samples were diluted in warm complete media (RPMI-1640 (Sigma), 0.5% Albumax (Invitrogen), 0.03% L-glutamine (Sigma), 0.2% Glucose (Sigma), 1× hypoxanthine (Sigma)), to a volume that would allow a final volume of […] per sample and a haematocrit of <10%. […] Control tubes containing DMSO only were kept at 37 °C. All other samples were incubated at room temperature for 30 min immediately after addition of test compounds. Samples were then washed once in warm RPMI followed by removal of the supernatant to leave a final haematocrit of roughly 50%. Samples were smeared on glass slides and fixed in 100% methanol (VWR) then stained for 15 min in 10% Giemsa R66 (VWR) and observed by light microscopy. The number of gametocytes at stage V and rounded up per 900 erythrocytes were counted three consecutive times to produce an average count. Numbers of parasites rounded up were compared to the no drug control.

In the case of `Cc1cn2c(-c3ccnc(NCC4CC4)n3)c(-c3ccc(F)c(NS(C)(=O)=O)c3)nc2cc1CN(C)C` [ML10], the “inhibitory activity against panel of 80 human protein kinases” value [1] is reported as “only low levels of inhibitory activity”, the “lag before killing (effects reversible following wash-out)” value [2] is reported as “about 24 h” and the logD (physchem) is reported as 2.8. It also gave an EC50 at 48 h [3] of over 10 µM, an IC50 [4] of over 20 µM and an inhibition at 0.1 µM (human MLK3) of 40%. For the same molecule, the “parasitaemia at the end of the treatment” value ([5]; 100 mg/kg twice daily oral) was “not detectable”, the effect on parasitaemia ([5]; 50 or 100 mg/kg twice daily oral) was “dramatically reduced parasitaemia” and the “rounding up of wild-type gametocytes” value [6] was “blocked rounding up”.
